From patent publication US4699907A, “4-morpholinyl-1H-indoles, pharmaceutical compositions and use” (Roussel Uclaf, priority 1985, dated 1987)

What was measured:
[1] = system: mice; assay: Acute toxicity study; format: in vivo; conditions: oral administration to mice
Protocol: The lethal doses LDO of the different compounds tested were evaluated after oral administration to mice.

[2] = system: hippocampus of the rat; assay: Test for neuron activation (accumulation of 2-deoxyglucose-6-phosphate); format: in vivo; conditions: 14C 2-deoxyglucose tracer dose
Protocol: C: Test for neuron activation
Neuron activation causes an increase in the corresponding metabolism which is shown by an increase in the consumption of glucose, a proof of energy consumption. This increase was evaluated by measuring the accumulation in the neuron cells of 2deoxyglucose-6-phosphate stemming from the conversion by hexokinase of 2-deoxyglucose ^14 C, an analogue of glucose, administered as a tracer dose, which used the same route of entry into the cell as glucose.

[3] = system: enolase γγ; assay: Test for enolase (kainic acid induced neuron lesions); format: in vivo; conditions: mice; 1 mg/kg intraperitoneally one hour before 35 mg/kg sub-cutaneous kainic acid
[4] = system: male rats; assay: Test of labyrinth in T after partial lesion of the septo hippocampic route; format: in vivo, rat; conditions: electrolytic partial septo-hippocampic lesion, 20 mg/kg orally, 1 hour before test, days +5 to +8, compared to untreated animals
Protocol: A: Test of labyrinth in T after partial lesion of the septo hippocampic route
By means of an electrolytic partial lesion of neurons of the septo-hippocampic route, a disfunction of the cognitive faculty was provoked in male rats having acquired an apprenticeship in a labyrinth in the form of a T and then the speed of recovery of the disturbed memory faculties was measured. The animals got accustomed to their new environment on days -9 to -6 and rested on days -5 and -4. Their apprenticeship was carried out on days -3 to 0. At this time, the response of the rats was positive at 75-80%. On day 0, the lesion was carried out and the animals rested on days +1 to +3. The animals were tested on day +4 and at this time, only 50% of the responses were positive. From day +5 to +8, the rats were tested after being treated orally with the products under test 1 hour earlier. On day +11, the rats were tested without treatment. The percentage of positive responses of the treated animals were compared in relation to the untreated animals.

| Compound | LDO (maximum dose which does not cause mortality in 8 days) [1] [mg/kg] | accumulation of 2-deoxyglucose 6-P in the hippocampus [2] | decrease of the serous concentration of enolase γγ [3] [%] | recovery of the memory functions [4] |
| --- | --- | --- | --- | --- |
| CN1C[C@H](CO)O[C@H](c2cccc3[nH]ccc23)C1 (relative stereo) [Example 3, (2RS, 6RS) 6-(1H-indol-4-yl)-4-methyl-2-morpholine methanol] | ≥ 400 |  |  |  |
| CSC[C@H]1CN(C)C[C@@H](c2cccc3[nH]ccc23)O1 (relative stereo) [Example 4, 4-[(2R-cis) 4-methyl-6-[(methylthio)methyl]-2-morpholinyl]-1H-indole (dl)] | 200 | increase in the accumulation of 2-deoxyglucose 6-P | 34 | significantly improved the recovery of the memory functions |
| CN1C[C@H](CC#N)O[C@H](c2cccc3[nH]ccc23)C1 (relative stereo) [Example 5, (2SR, 6RS) 6-(1H-indol-4-yl)-4-methyl-2-morpholine acetonitrile] | ≥ 200 |  |  |  |
| N,N-diethyl 6-(1H-indol-4-yl)-4-methyl-2-morpholine carboxamide [Example 2] | ≥ 200 |  |  |  |
